# Measured values published in article PMC10786692 (The Journal of Clinical Investigation, 2024).
# How the values were obtained:
# phospho-(S345)Chk1 = assay: PBMC phospho-Chk1 immunofluorescence; assay type: in vivo, human; details: after 2-week dosing
# Procedure: (§1) PD sampling took place at baseline (within 7 days prior to dosing) and between days 15 and 22 of dosing (day 14 for intermittent dosing cohorts). PD samples included PBMCs and tumor biopsies. PBMCs were analyzed by immunofluorescence for γ^(S139)H2AX, p-^(S345)Chk1, and total Chk1, as described in Supplemental Methods. Paired tumor biopsies were formalin fixed and analyzed for nuclear p-^(S635)Rad50 and γH2AX by IHC.
# (§2) PBMCs were isolated from blood using BD Vacutainer® CPT™ Cell preparation tubes with sodium citrate (BD Biosciences, Wokingham, UK) and fixed with 4% formalin containing 1% Triton™ X-100 (Sigma-Aldrich, St. Louis, MO). […] A Carl Zeiss LSM 700 confocal laser scanning fluorescence microscope (Zeiss, Jena, Germany) was used to visualize and capture images of the PBMCs. Fluorescent nuclear intensity for phospho-(S345) and total Chk1 in individual PBMC cells were quantified using the IN Cell Investigator Developer Toolbox v1.9 software (GE Healthcare Biosciences, Piscataway, NJ). For the phospho(S345)- and total Chk1 assays: the raw data values (fluorescent nuclear intensity for PBMCs), the percentage change for phospho(S345) biomarker was calculated for each subject by comparing the levels measured at each post-dose time point to pre-dose levels measured at baseline. […]
# (§3) Peripheral blood was drawn into 8 mL EDTA tubes (Vacutainer, BD) and analyzed within 24 hours. […]
# [1] = Change in full blood count parameters with time (bone marrow toxicity); assay type: in vivo, human; design: Lymphocyte change / Monocyte change / Hb change: unit not given here; details: for Neutrophil / Platelet: in 10^9/L (unit assumed)
# Procedure: Patients were assessed weekly during cycle 1 and twice weekly thereafter, with safety assessments including blood hematology and biochemistry, physical examination, and toxicity scoring. Safety and tolerability were assessed using Common Terminology Criteria for Adverse Events (CTCAE), version 4.03.
# [2] = preclinical monotherapy; cited from earlier work
# phospho-(S635)Rad50 = assay: Paired tumor biopsy p-Rad50 IHC; assay type: in vivo, human; details: four paired biopsies, after 2-week dosing
# Procedure: as §1, with “IHC. […]” for “IHC.”
# signatures for heatmap construction were used from MSigDB (49) and cell-type-related transcripts from NanoString annotations and Bindea et al (50). Cell-type deconvolution was performed using CIBERSORTx (51).
# Supplementary Pharmacodynamic methods
# Formalin fixed paraffin-embedded tumor samples were used. […] H-score was calculated using HALO image analysis (Indica Labs). […] Nuclear ATM (Abcam 32420) IHC staining was carried out on the Ventana autostainer, using DAB detection and assessed by H-score, but samples were only deemed acceptable if lymphocyte staining (internal control) was at least 2+ (moderate) intensity. Cyclin E1 (Invitrogen HE12) staining was carried out on the Ventana autostainer, using DAB detection and the H-score was quantified using HALO image analysis (Indica Labs). Ki67 (Mib-1, Dako M7240) was scored by percent nuclear positivity using a global unweighted method, scoring 4 areas of 100 cells. […]
# γH2AX = assay: PBMC γH2AX immunofluorescence (% cells with >5 foci); assay type: in vivo, human; details: after treatment at the RP2D, most subjects
# Procedure: as §1, §2, §3
# [3] = part B, 160mg (continuous), change from relative day 0, per patient and time point
# [4] = part B, 160mg (continuous), per patient and time point
# [5] = patient B138, part B, 160mg (intermittent), time point C1D1
# [6] = patient B466, part B, 160mg (intermittent), C26D15, relative day 589
# [7] = patient B466, part B, 160mg (intermittent), C26D15, relative day 589, change from Day 0
# [8] = patient B466, part B, 160mg (intermittent), C27D15, relative day 603
# [9] = patient B466, part B, 160mg (intermittent), C27D15, relative day 603, change from Day 0
# [10] = patient B466, part B, 160mg (intermittent), C28D15, relative day 617
# [11] = patient B466, part B, 160mg (intermittent), C28D15, relative day 617, change from Day 0
# [12] = patient B466, part B, 160mg (intermittent), C29D15, relative day 645
# [13] = patient B466, part B, 160mg (intermittent), C29D15, relative day 645, change from Day 0
# [14] = patient B466, part B, 160mg (intermittent), C30D15, relative day 673
# [15] = patient B466, part B, 160mg (intermittent), C30D15, relative day 673, change from Day 0
# [16] = patient B466, part B, 160mg (intermittent), C31D15, relative day 701
# [17] = patient B466, part B, 160mg (intermittent), C31D15, relative day 701, change from Day 0
smiles,measurement,setting,value
C[C@@H]1COCCN1c1cc(C2([S@](C)(=N)=O)CC2)nc(-c2cc[nH]c3nccc2-3)n1 [ceralasertib],p-Chk1 levels in PBMCs with treatment,phospho-(S345)Chk1,not consistent
same,"Platelets and other hematological parameters, intermittent versus continuous schedule","[1]; 160 mg BD, recovering in the treatment break",more favorable
same,Hb change,[1]; [3],0
same,Lymphocyte change,[1]; [3],0
same,Monocyte change,[1]; [3],0
same,Platelet change,[1]; [3],0
same,Neutrophil,[1]; [4],3.29
same,Platelet,[1]; [4],210
same,Hb,"[1]; part B, dose cohort 160mg (continuous), per patient and time point",13.7
same,Hb,[1]; [5],11.5
same,Neutrophil,[1]; [5],8.54
same,Platelet,[1]; [5],213
same,Hb,[1]; [6],101 g/L
same,Lymphocyte change,[1]; [7],0.4
same,Monocyte change,[1]; [7],0.2
same,Platelet change,[1]; [7],125
same,Neutrophil,[1]; [6],4.5
same,Platelet,[1]; [6],571
same,Hb,[1]; [8],96
same,Lymphocyte change,[1]; [9],0
same,Monocyte change,[1]; [9],-0.8
same,Platelet change,[1]; [9],-198
same,Neutrophil,[1]; [8],2.7
same,Platelet,[1]; [8],248
same,Hb,[1]; [10],99
same,Lymphocyte change,[1]; [11],0
same,Monocyte change,[1]; [11],0.2
same,Platelet change,[1]; [11],142
same,Neutrophil,[1]; [10],2.7
same,Platelet,[1]; [10],588
same,Hb,[1]; [12],100 g/L
same,Lymphocyte change,[1]; [13],0.5
same,Monocyte change,[1]; [13],-0.6
same,Platelet change,[1]; [13],143
same,Neutrophil,[1]; [12],4.6
same,Platelet,[1]; [12],589
same,Hb,[1]; [14],103 g/L
same,Lymphocyte change,[1]; [15],0.5
same,Monocyte change,[1]; [15],0.1
same,Platelet change,[1]; [15],118
same,Neutrophil,[1]; [14],3.9
same,Platelet,[1]; [14],564
same,Hb,[1]; [16],101 g/L
same,Monocyte change,[1]; [17],0.2
same,Platelet change,[1]; [17],172
same,Platelet,[1]; [16],618
same,GI50,[2],~1000 nM
same,p-Rad50 in paired tumor biopsies,phospho-(S635)Rad50,upregulation
same,γH2AX positivity in PBMCs,γH2AX,Increased
